According to patent US20060089352A1, “Substituted thiazines as material protecting agents” (priority 2002, published 2006):

Experiments:
Format in all cases: cell-based
Aspergillus niger = experiment: Minimum inhibitory concentration (MIC) on malt extract agar; conditions: 2 weeks incubation at 28° C., 60 to 70% relative atmospheric humidity
Description: (§1) The MIC was determined after 2 weeks of incubation at 28° C. and 60 to 70% relative atmospheric humidity. The MIC is the lowest concentration of active compound at which there is no colonization by the microbial species used; it is indicated in Table 2.

Chaetomium globosum = experiment: as above; conditions: 2 weeks incubation at 28° C., 60 to 70% relative atmospheric humidity
Description: as §1

Penicillium brevicaule = experiment: as above; conditions: 2 weeks incubation at 28° C., 60 to 70% relative atmospheric humidity
Description: as §1

[1] = system: mold fungi (Alternaria tenuis, Aspergillus flavus, Aspergillus niger, Aspergillus ustus, Cindosporum herbarum, Paecilomyces variotii, Penicillium citrium …); experiment: Test of dispersion coatings for resistance to mold; conditions: coatings according to recipe A containing 1.5% (based on solids) of compound; even after rinsing out and wind tunnel exposure; 2-3 weeks storage, 29±1° C., 80-90% rel. humidity
Description: To test dispersion coatings for resistance to mold, the following procedure was adopted:
The paint to be tested was applied to both sides of a suitable base. To obtain results which are close to practice, some of the test specimens were rinsed out with running water (24 h, 20° C.) before the test for mold resistance; others were treated with a current of warm fresh air (7 days, 40° C.).
The samples prepared in this way were then placed on an agar nutrient medium, and both samples and nutrient medium were contaminated with fungal spores. After 2-3 weeks storage (29±1° C., 80-90% rel. atmospheric humidity), the samples were compared.
The coating is considered to be permanently mold-resistant if the sample remains free from fungus or at most a slight border infestation can be detected.
For the contamination, fungal spores of the following mold fungi were used, which are known as paint destroyers or are frequently encountered on coatings: • Alternaria tenuis • Aspergillus flavus • Aspergillus niger • Aspergillus ustus • Cindosporum herbarum • Paecilomyces variotii • Penicillium citrium • Aureobasidium pullulans • Stachybotrys chartarum
Recipe A: Exterior dispersion paint based on Acroal 290 D (styrene acrylate)

SMILES | Minimum inhibitory concentrations Aspergillus niger (Aspergillus niger) [ppm] | Minimum inhibitory concentrations Chaetomium globosum (Chaetomium globosum) [ppm] | Minimum inhibitory concentrations Penicillium brevicaule (Penicillium brevicaule) [ppm] | Mold resistance of coating [1]
COc1ccc(SC2=NCC(C)CS2)cc1 (centres unmarked) [Example 1] | <200 | <100 | <100 | –
COc1ccc(SC2=NC3CCCCC3CS2)cc1 (centres unmarked) [Example 4] | – | 100 | – | –
CC1CN=C(Sc2ccc(Cl)cc2)SC1 (centres unmarked) [Example 6] | 50 | 20 | 20 | –
CC1CN=C(Sc2ccccc2)SC1 (centres unmarked) [Example 11] | <50 | <50 | <50 | –
CC1(C)CN=C(Sc2cccs2)SC1 [Example 45] | <200 | <50 | <50 | –
COc1ccc(SC2=NCC(C)(C)CS2)cc1 [Example 47] | – | – | – | mold resistant
CC1(C)CN=C(Sc2cccc(F)c2)SC1 [Example 51] | 200 | <200 | <200 | –
CC1(C)CCSC(Sc2ccc(Cl)cc2)=N1 [Example 61] | – | 200 | – | –
CC1CCN=C(Sc2ccccc2)S1 (centres unmarked) [Example 62] | <100 | <100 | <50 | –
COc1cccc(SC2=NCCC(C)S2)c1 (centres unmarked) [Example 67] | <200 | <100 | <100 | –
c1csc(SC2=NC3CCCC3CS2)c1 (centres unmarked) [Example 79] | – | <100 | 100 | –
c1ccc(SC2=NC3CCCC3CS2)cc1 (centres unmarked) [Example 81] | – | <100 | 200 | –
Cc1ccc(SC2=NC3CCCC3CS2)cc1 (centres unmarked) [Example 82] | – | 100 | – | –
